In the supplement of paper PMC10627819:

Experiments:
[1] = tested on: B. subtilis 168; assay: fitness (endpoint OD595 vs no drug) (fraction); higher = more growth
Procedure, shortened: (§1)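 Each well of a 384-well plate received 30 µl of culture at OD595 0.01, or 55 µl for S. pneumoniae. TSB, LB Lennox or CY served as media at 37 °C. OD595 was taken every 30 min for 14 h and corrected by subtracting the first reading. Fitness is the optical density at stationary-phase entry divided by the robust mean of no-drug controls, capped at 1.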

[2] = tested on: S. aureus Newman; assay: as above
Procedure, shortened: as §1

[3] = tested on: B. subtilis 168; assay: Bliss interaction score (quartile over a dose matrix) (fitness difference); higher = more antagonism (negative = synergy)
Procedure, shortened: (§2)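 Fitness was OD595 at entry into stationary phase divided by the plate's robust no-drug mean and capped at 1; single-drug fitness was inferred from combination data. The Bliss score is observed minus expected (product) fitness, summarised by quartiles over technical, biological and donor/recipient replicates.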

[4] = tested on: S. pneumoniae D39V; assay: as above
Procedure, shortened: as §2

[5] = tested on: S. aureus Newman; assay: as above
Procedure, shortened: as §2

[6] = tested on: S. aureus DSM 20231; assay: as above
Procedure, shortened: as §2
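Wherever Bliss interaction score (quartile over a dose matrix) is given: first quartile when negative (synergy) and third quartile when positive (antagonism).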

CC[C@H]1OC(=O)[C@H](C)[C@@H](O[C@H]2C[C@@](C)(OC)[C@@H](O)[C@H](C)O2)[C@H](C)[C@@H](O[C@@H]2O[C@H](C)C[C@H](N(C)C)[C@H]2O)[C@](C)(O)C[C@@H](C)CN(C)[C@H](C)[C@@H](O)[C@]1(C)O [Azithromycin] + CC1=C(C(=O)O)N2C(=O)[C@@H](NC(=O)[C@H](N)c3ccccc3)[C@H]2SC1 [Cephalexin]
fitness
Settings | partner 0.125 µg/mL | partner 0.25 µg/mL | partner 0.5 µg/mL | partner 1 µg/mL
[1], first compound 0.25 µg/mL | 0.856 | 0.936 | 0.899 | ≥ 1
[1], first compound 0.5 µg/mL | 0.823 | 0.845 | 0.849 | 0.867
[1], first compound 1 µg/mL | 0.543 | – | – | –
[2], first compound 0.125 µg/mL | – | 0.892 | 0.918 | 0.907
[2], first compound 0.25 µg/mL | – | 0.893 | 0.915 | 0.913
[2], first compound 0.5 µg/mL | – | 0.739 | 0.719 | 0.728

Settings | Bliss interaction score
[3] | 0.0757
[4] | -0.0716
[5] | 0.0763
[6] | -0.0843

CC[C@H]1OC(=O)[C@H](C)[C@@H](O[C@H]2C[C@@](C)(OC)[C@@H](O)[C@H](C)O2)[C@H](C)[C@@H](O[C@@H]2O[C@H](C)C[C@H](N(C)C)[C@H]2O)[C@](C)(O)C[C@@H](C)CN(C)[C@H](C)[C@@H](O)[C@]1(C)O [Azithromycin] + CC(C1CCC(C(O1)OC2C(CC(C(C2O)OC3C(C(C(CO3)(C)O)NC)O)N)N)N)NC [Gentamicin]
fitness, main component drawn
Settings | first compound 0.125 µg/mL | first compound 0.25 µg/mL | first compound 0.5 µg/mL
[1], partner 0.0625 µg/mL | – | 0.847 | –
[2], partner 0.5 µg/mL | 0.879 | 0.851 | 0.742
[2], partner 1 µg/mL | 0.899 | 0.901 | 0.827
[2], partner 2 µg/mL | 0.942 | 0.958 | 0.79

fitness, one replicate, main component drawn
Settings | partner 0.0625 µg/mL | partner 0.125 µg/mL | partner 0.25 µg/mL | partner 0.375 µg/mL | partner 0.75 µg/mL | partner 1.5 µg/mL
[1], first compound 2 µg/mL | 0.482 | 0.322 | 0.337 | – | – | –
[2], first compound 0.125 µg/mL | – | – | – | 0.946 | 0.936 | 0.954
[2], first compound 0.25 µg/mL | – | – | – | ≥ 1 | 0.943 | 0.911
[2], first compound 0.5 µg/mL | – | – | – | 0.711 | 0.62 | 0.571

main component drawn
Settings | Bliss interaction score
[3] | 0.305
[4] | -0.0659
[5] | 0.118
[6] | 0.106

CC[C@H]1OC(=O)[C@H](C)[C@@H](O[C@H]2C[C@@](C)(OC)[C@@H](O)[C@H](C)O2)[C@H](C)[C@@H](O[C@@H]2O[C@H](C)C[C@H](N(C)C)[C@H]2O)[C@](C)(O)C[C@@H](C)CN(C)[C@H](C)[C@@H](O)[C@]1(C)O [Azithromycin] + CC[C@H](C)[C@H](N)C1=N[C@H](C(=O)N[C@@H](CC(C)C)C(=O)N[C@H](CCC(=O)O)C(=O)N[C@H](C(=O)N[C@H]2CCCCNC(=O)[C@H](CC(N)=O)NC(=O)[C@@H](CC(=O)O)NC(=O)[C@H](Cc3cnc[nH]3)NC(=O)[C@@H](Cc3ccccc3)NC(=O)[C@H]([C@@H](C)CC)NC(=O)[C@@H](CCCN)NC2=O)[C@@H](C)CC)CS1 [Bacitracin]
fitness, main component drawn
Settings | partner 18.75 µg/mL | partner 37.5 µg/mL | partner 75 µg/mL | partner 150 µg/mL
[1], first compound 0.25 µg/mL | – | 0.907 | 0.845 | 0.837
[1], first compound 0.5 µg/mL | – | 0.773 | 0.76 | –
[2], first compound 0.125 µg/mL | 0.654 | – | 0.0145 | –
[2], first compound 0.25 µg/mL | – | 0.0979 | 0.0091 | –
[2], first compound 0.5 µg/mL | – | 0.0136 | 0.0029 | –

[1], first compound 2 µg/mL, one replicate, main component drawn
Settings | fitness
partner 37.5 µg/mL | 0.0502
partner 75 µg/mL | 0.0262
partner 150 µg/mL | 0.0177

main component drawn
Settings | Bliss interaction score
[3] | 0.0819
[4] | 0.0418
[5] | -0.101
[6] | -0.0556

CC[C@H]1OC(=O)[C@H](C)[C@@H](O[C@H]2C[C@@](C)(OC)[C@@H](O)[C@H](C)O2)[C@H](C)[C@@H](O[C@@H]2O[C@H](C)C[C@H](N(C)C)[C@H]2O)[C@](C)(O)C[C@@H](C)CN(C)[C@H](C)[C@@H](O)[C@]1(C)O [Azithromycin] + CN(C)c1cc(NC(=O)CNC(C)(C)C)c(O)c2c1C[C@H]1C[C@H]3[C@H](N(C)C)C(O)=C(C(N)=O)C(=O)[C@@]3(O)C(O)=C1C2=O [Tigecycline]
fitness
Settings | partner 0.039 µg/mL | partner 0.078 µg/mL | partner 0.156 µg/mL
[1], first compound 0.25 µg/mL | 0.979 | 0.873 | 0.887
[1], first compound 0.5 µg/mL | 0.886 | 0.811 | 0.839
[2], first compound 0.125 µg/mL | 0.892 | 0.908 | 0.855
[2], first compound 0.25 µg/mL | 0.88 | 0.868 | 0.912
[2], first compound 0.5 µg/mL | 0.641 | 0.666 | 0.622

fitness, [1], one replicate
Settings | first compound 0.5 µg/mL | first compound 1 µg/mL | first compound 2 µg/mL
partner 0.125 µg/mL | 0.894 | 0.947 | 0.614
partner 0.25 µg/mL | 0.889 | 0.871 | 0.48
partner 0.5 µg/mL | 0.941 | 0.826 | 0.332

Settings | Bliss interaction score
[3] | 0.0692
[4] | -0.0801
[5] | -0.0615
[6] | -0.0977

CC[C@H]1OC(=O)[C@H](C)[C@@H](O[C@H]2C[C@@](C)(OC)[C@@H](O)[C@H](C)O2)[C@H](C)[C@@H](O[C@@H]2O[C@H](C)C[C@H](N(C)C)[C@H]2O)[C@](C)(O)C[C@@H](C)CN(C)[C@H](C)[C@@H](O)[C@]1(C)O [Azithromycin] + CN[C@@H]1[C@H](O[C@H]2[C@H](O[C@H]3[C@H](O)[C@@H](O)[C@H](N=C(N)N)[C@@H](O)[C@@H]3N=C(N)N)O[C@@H](C)[C@]2(O)C=O)O[C@@H](CO)[C@H](O)[C@H]1O [Streptomycin]
fitness
Settings | first compound 0.125 µg/mL | first compound 0.25 µg/mL | first compound 0.5 µg/mL
[1], partner 2 µg/mL | – | 0.943 | 0.843
[1], partner 4 µg/mL | – | 0.807 | 0.739
[2], partner 1 µg/mL | 0.881 | 0.849 | –

Settings | Bliss interaction score
[3] | 0.206
[4] | -0.0455
[5] | 0.102
[6] | 0.108

CC[C@H]1OC(=O)[C@H](C)[C@@H](O[C@H]2C[C@@](C)(OC)[C@@H](O)[C@H](C)O2)[C@H](C)[C@@H](O[C@@H]2O[C@H](C)C[C@H](N(C)C)[C@H]2O)[C@](C)(O)C[C@@H](C)CN(C)[C@H](C)[C@@H](O)[C@]1(C)O [Azithromycin] + CO/N=C(\C(=O)N[C@@H]1C(=O)N2C(C(=O)O)=C(COC(N)=O)CS[C@H]12)c1ccco1 [Cefuroxime]
fitness, one replicate
Settings | partner 0.04875 µg/mL | partner 0.0975 µg/mL | partner 0.195 µg/mL | partner 1.562 µg/mL | partner 3.125 µg/mL | partner 6.25 µg/mL
[1], first compound 0.25 µg/mL | 0.867 | 0.81 | – | 0.293 | 0.262 | 0.222
[1], first compound 0.5 µg/mL | – | – | – | 0.242 | 0.146 | 0.0811
[1], first compound 1 µg/mL | – | – | – | 0.0319 | 0.0369 | 0.0154
[1], first compound 2 µg/mL | 0.0565 | 0.0607 | 0.0393 | – | – | –
[2], first compound 0.125 µg/mL | 0.967 | 0.894 | 0.876 | – | – | –
[2], first compound 0.25 µg/mL | 0.897 | 0.878 | 0.802 | – | – | –
[2], first compound 0.5 µg/mL | 0.653 | 0.612 | 0.547 | – | – | –

fitness, [1]
Settings | partner 0.04875 µg/mL | partner 0.0975 µg/mL | partner 0.195 µg/mL | partner 0.39 µg/mL | partner 0.78 µg/mL
first compound 0.25 µg/mL | – | – | 0.556 | 0.353 | 0.305
first compound 0.5 µg/mL | 0.708 | 0.609 | – | 0.35 | 0.312
first compound 1 µg/mL | 0.463 | 0.361 | 0.215 | 0.171 | 0.16

Settings | Bliss interaction score
[3] | 0.0595
[4] | 0.0571
[5] | 0.0821
[6] | -0.24
